Measured values as given in patent publication US8916702B2 (priority 2012, dated 2014).

What follows are compounds tested on HCV pseudoparticles (genotype 1a HCV E1 and E2 envelope, H77C isolate) (assay: microbe, parasite or virus in culture). Conditions: Hepatitis C virus, Huh-7, 48 h, HCV pseudoparticle infection of Huh7 cells, luciferase 2 days after infection; average of duplicates.
Type: cell-based

Row | Structure (SMILES) | EC50 [nM]
1 | COC(=O)[C@H](CNC(=O)C(=O)NCc1c(F)cccc1F)NC(=O)c1ccc(Nc2nc(NC3(c4ccc(Cl)cc4)CC3)nc(OCC(F)(F)F)n2)cc1 [Compound 1135] | 1.92
2 | CC(C)(CNC(=O)C(=O)Nc1cccc(CCC(=O)O)c1)CNC(=O)c1ccc(Nc2nc(NC3(c4ccc(Cl)cc4)CC3)nc(OCC(F)(F)F)n2)cc1 [Compound 1482] | 0.17

Same assay, conditions: Hepatitis C virus, Huh-7, 48 h, HCV pseudoparticles (genotype 1a, H77C) in Huh7 cells; average of duplicate; luciferase 2 days after infection

Row | Structure (SMILES) | EC50 [nM]
3 | Cc1ccc(NC(=O)C(=O)NCC(C)(C)CNC(=O)c2ccc(Nc3nc(NC4(c5ccc(Cl)cc5)CC4)nc(OCC(F)(F)F)n3)cc2)c(F)c1 [Compound 3056] | 0.007
4 | Cc1ccc(NC(=O)C(=O)NCCCNC(=O)c2ccc(Nc3nc(NC4(c5ccc(Cl)cc5)CC4)nc(OCC(F)(F)F)n3)cc2)cc1 [Compound 3358] | 0.034

Same assay, conditions: Hepatitis C virus, Huh-7, 48 h, read-out: Activity (EC50 class), HCV pseudoparticle infection of Huh7 cells, luciferase 2 days after infection; EC50 expressed as class A/B

Row | Structure (SMILES) | EC50 [nM]
5 | COC(=O)[C@H](CCNC(=O)C(=O)NCC1CCCCCC1)NC(=O)c1ccc(Nc2nc(NC3(c4ccc(Cl)cc4)CC3)nc(OCC(F)(F)F)n2)cc1 [Compound 1197] | 0.01 to 10
6 | CCC(C)CNC(=O)C(=O)NC[C@@H](NC(=O)c1ccc(Nc2nc(NC3(c4ccc(Cl)cc4)CC3)nc(OCC(F)(F)F)n2)cc1)C(=O)O (stereo partly drawn) [Compound 1044] | 0.01 to 10
7 | COc1cccc(CCNC(=O)C(=O)NCC[C@H](NC(=O)c2ccc(Nc3nc(NC4(c5ccc(Cl)cc5)CC4)nc(OCC(F)(F)F)n3)cc2)C(=O)O)c1 [Compound 1330] | 0.01 to 10
8 | COC(=O)[C@H](CCNC(=O)C(=O)N[C@H]1C[C@H]2C3C2[C@]31C)NC(=O)c1ccc(Nc2nc(NC3(c4ccc(Cl)cc4)CC3)nc(OCC(F)(F)F)n2)cc1 (stereo partly drawn) [Compound 1100] | 0.01 to 10
9 | CCC1CCC(NC(=O)C(=O)NC[C@H](NC(=O)c2ccc(Nc3nc(NC4(c5ccc(Cl)cc5)CC4)nc(OCC(F)(F)F)n3)cc2)C(=O)O)CC1 (stereo partly drawn) [Compound 1093] | 0.01 to 10
10 | CC1CC(NC(=O)C(=O)NCC[C@H](NC(=O)c2ccc(Nc3nc(NC4(c5ccc(Cl)cc5)CC4)nc(OCC(F)(F)F)n3)cc2)C(=O)O)CC(C)(C)C1 (stereo partly drawn) [Compound 1127] | 0.01 to 10
11 | O=C(NCC1CC1)C(=O)NC1CCCC1CNC(=O)c1ccc(Nc2nc(NC3(c4ccc(Cl)cc4)CC3)nc(OCC(F)(F)F)n2)cc1 (stereo not drawn) [Compound 1462] | 0.01 to 10
12 | Cc1ccc(CNC(=O)C(=O)NCC[C@H](NC(=O)c2ccc(Nc3nc(NC4(c5ccc(Cl)cc5)CC4)nc(OCC(F)(F)F)n3)cc2)C(=O)O)cc1 [Compound 1185] | 0.01 to 10
13 | COC(=O)[C@H](CCNC(=O)C(=O)Nc1ccc(F)c(F)c1)NC(=O)c1ccc(Nc2nc(NC3(c4ccc(Cl)cc4)CC3)nc(OCC(F)(F)F)n2)cc1 [Compound 1505] | 0.01 to 10
14 | O=C(NCC[C@H](NC(=O)c1ccc(Nc2nc(NC3(c4ccc(Cl)cc4)CC3)nc(OCC(F)(F)F)n2)cc1)C(=O)O)C(=O)NCc1cc(F)ccc1F [Compound 1189] | 0.01 to 10
15 | CC(C)(CNC(=O)C(=O)Nc1ccc(C2CCCCC2)cc1)CNC(=O)c1ccc(Nc2nc(NC3(c4ccc(Cl)cc4)CC3)nc(OCC(F)(F)F)n2)cc1 [Compound 1584] | 0.01 to 10
16 | CC(C)(CNC(=O)C(=O)NCC1(CN2CCCC2)CC1)CNC(=O)c1ccc(Nc2nc(NC3(c4ccc(Cl)cc4)CC3)nc(OCC(F)(F)F)n2)cc1 [Compound 1036] | 0.01 to 10
17 | CCC(CC)NC(=O)C(=O)NCCC(NC(=O)c1ccc(Nc2nc(NC3(c4ccc(Cl)cc4)CC3)nc(OCC(F)(F)F)n2)cc1)C(=O)OC (stereo not drawn) [Compound 1106] | 0.01 to 10
18 | COC(=O)[C@H](CNC(=O)C(=O)N[C@@H]1C[C@H]2C[C@@H]([C@H]1C)C2(C)C)NC(=O)c1ccc(Nc2nc(NC3(c4ccc(Cl)cc4)CC3)nc(OCC(F)(F)F)n2)cc1 [Compound 1069] | 0.01 to 10
19 | O=C(NCC[C@H](NC(=O)c1ccc(Nc2nc(NC3(c4ccc(Cl)cc4)CC3)nc(OCC(F)(F)F)n2)cc1)C(=O)O)C(=O)Nc1ccccc1 [Compound 1433] | 0.01 to 10
20 | COC(=O)[C@H](CNC(=O)C(=O)NCc1c(F)cccc1F)NC(=O)c1ccc(Nc2nc(NC3(c4ccc(Cl)cc4)CC3)nc(OCC(F)(F)F)n2)cc1 [Compound 1135] | 0.01 to 10
21 | CC(C)(CNC(=O)C(=O)Nc1cccc(CCC(=O)O)c1)CNC(=O)c1ccc(Nc2nc(NC3(c4ccc(Cl)cc4)CC3)nc(OCC(F)(F)F)n2)cc1 [Compound 1482] | 0.01 to 10
22 | CC(C)[C@@H]1CC[C@@H](C)C[C@H]1NC(=O)C(=O)NC[C@H](NC(=O)c1ccc(Nc2nc(NC3(c4ccc(Cl)cc4)CC3)nc(OCC(F)(F)F)n2)cc1)C(=O)O [Compound 1095] | 0.01 to 10
23 | CC(C)(C)CNC(=O)C(=O)NCC[C@H](NC(=O)c1ccc(Nc2nc(NC3(c4ccc(Cl)cc4)CC3)nc(OCC(F)(F)F)n2)cc1)C(=O)O [Compound 1205] | 0.01 to 10
24 | CCOC(=O)[C@H](CCNC(=O)C(=O)NC)NC(=O)c1ccc(Nc2nc(NC3(c4ccc(Cl)cc4)CC3)nc(OCC(F)(F)F)n2)cc1 [Compound 1027, (S)-ethyl 2-(4-(4-(1-(4-chlorophenyl)cyclopropylamino)-6-(2,2,2-trifluoroethoxy)-1,3,5-triazin-2-ylamino)benzamido)-4-(2-(methylamino)-2-oxoacetamido)butanoate] | 0.01 to 10
25 | COC(=O)[C@H](CCNC(=O)C(=O)NC1CCCCC1)NC(=O)c1ccc(Nc2nc(NC3(c4ccc(Cl)cc4)CC3)nc(OCC(F)(F)F)n2)cc1 [Compound 1140] | 0.01 to 10

Same assay, conditions: Hepatitis C virus, Huh-7, 48 h, read-out: Activity (EC50 class), HCV pseudoparticles, Huh7 cells, luciferase 2 days after infection; average of duplicates

Row | Structure (SMILES) | EC50 [nM]
26 | CNS(=O)(=O)c1cccc(NC(=O)C(=O)NC[C@H](NC(=O)c2ccc(Nc3nc(NC4(c5ccc(Cl)cc5)CC4)nc(OCC(F)(F)F)n3)cc2)C(=O)OC)c1 [Compound 3727] | 0.01 to 10
27 | Cc1ccc(NC(=O)C(=O)NCC(C)(C)CNC(=O)c2ccc(Nc3nc(NC4(c5ccc(Cl)cc5)CC4)nc(OCc4ccc(Cl)cc4)n3)cc2)cc1 [Compound 3849] | 0.01 to 10
28 | COC(=O)[C@H](CNC(=O)C(=O)Nc1ccc(N2CCCC2)nc1)NC(=O)c1ccc(Nc2nc(NC3(c4ccc(Cl)cc4)CC3)nc(OCC(F)(F)F)n2)cc1 [Compound 3721] | 0.01 to 10
29 | O=C(NC[C@H](NC(=O)c1ccc(Nc2nc(NC3(c4ccc(Cl)cc4)CC3)nc(OCC(F)(F)F)n2)cc1)C(=O)Cl)C(=O)Nc1cccc(Cl)c1 [Compound 3741] | 0.01 to 10
30 | Cc1csc(-c2cccc(NC(=O)C(=O)NCC[C@H](NC(=O)c3ccc(Nc4nc(NC5(c6ccc(Cl)cc6)CC5)nc(OCC(F)(F)F)n4)cc3)C(=O)O)c2)n1 [Compound 3649] | 0.01 to 10
31 | COC(=O)[C@H](CNC(=O)C(=O)Nc1ccc(Oc2ccccc2)nc1)NC(=O)c1ccc(Nc2nc(NC3(c4ccc(Cl)cc4)CC3)nc(OCC(F)(F)F)n2)cc1 [Compound 3715] | 0.01 to 10
32 | CC(C)(CNC(=O)C(=O)Nc1cccc(Oc2ccccc2)c1)CNC(=O)c1ccc(Nc2nc(NC3(c4ccc(Cl)cc4)CC3)nc(OCC(F)(F)F)n2)cc1 [Compound 3667] | 0.01 to 10
33 | CC(C)(C)c1cccc(NC(=O)C(=O)NCC[C@H](NC(=O)c2ccc(Nc3nc(NC4(c5ccc(Cl)cc5)CC4)nc(OCC(F)(F)F)n3)cc2)C(=O)O)c1 [Compound 3629] | 0.01 to 10
34 | O=C(NC[C@H](NC(=O)c1ccc(Nc2nc(NC3(c4ccc(Cl)cc4)CC3)nc(OCC(F)(F)F)n2)cc1)C(=O)Cl)C(=O)Nc1cccc(-c2cccnc2)c1 [Compound 3783] | 0.01 to 10
35 | O=C(NCC[C@H](NC(=O)c1ccc(Nc2nc(NC3(c4ccc(Cl)cc4)CC3)nc(OCC(F)(F)F)n2)cc1)C(=O)O)C(=O)Nc1ccc(O)nc1 [Compound 3646] | 0.01 to 10

Same assay, conditions: Hepatitis C virus, Huh-7, read-out: Activity (EC50 class), HCV pseudoparticles (genotype 1a, H77C) in Huh7 cells; EC50 expressed as class A/B

Row | Structure (SMILES) | EC50 [nM]
36 | COC(=O)[C@@H](CCNC(=O)C(=O)Nc1ccc(Oc2ccc(Cl)cc2Cl)nc1)NC(=O)c1ccc(Nc2nc(NC3(c4ccc(Cl)cc4)CC3)nc(OCC(F)(F)F)n2)cc1 [Compound 3580] | 10 to 1000
37 | O=C(NC[C@H](NC(=O)c1ccc(Nc2nc(NC3(c4ccc(Cl)cc4)CC3)nc(OCC(F)(F)F)n2)cc1)C(=O)O)C(=O)Nc1ccc(-c2ccno2)cc1 [Compound 3282] | 0.01 to 10
38 | COc1cccc(NC(=O)C(=O)NCC(C)(C)CNC(=O)c2ccc(Nc3nc(NC4(c5ccc(Cl)cc5)CC4)nc(OCC(F)(F)F)n3)cc2)c1 [Compound 3008] | 0.01 to 10
39 | Cc1ccc(NC(=O)C(=O)NCC(C)(C)CNC(=O)c2ccc(Nc3nc(NC4(c5ccc(Cl)cc5)CC4)nc(OCC(F)(F)F)n3)cc2)c(F)c1 [Compound 3056] | 0.01 to 10
40 | CN(CCCN(C)C(=O)c1ccc(Nc2nc(NC3(c4ccc(Cl)cc4)CC3)nc(OCC(F)(F)F)n2)cc1)C(=O)C(=O)Nc1cccc(F)c1 [Compound 3410] | 0.01 to 10
41 | Cc1ccc(NC(=O)C(=O)NCCCNC(=O)c2ccc(Nc3nc(NC4(c5ccc(Cl)cc5)CC4)nc(OCC(F)(F)F)n3)cc2)cc1 [Compound 3358] | 0.01 to 10
42 | Cc1ccc(NC(=O)C(=O)NCCCCNC(=O)c2ccc(Nc3nc(NC4(c5ccc(Cl)cc5)CC4)nc(OCC(F)(F)F)n3)cc2)cc1 [Compound 3393] | 0.01 to 10
43 | CC(C)(CNC(=O)C(=O)Nc1ccc(OC(F)(F)F)cc1)CNC(=O)c1ccc(Nc2nc(NC3(c4ccc(Cl)cc4)CC3)nc(OCC(F)(F)F)n2)cc1F [Compound 3559] | 0.01 to 10
44 | CC(C)(CNC(=O)C(=O)NCc1cccc(Cl)c1)CNC(=O)c1ccc(Nc2nc(NC3(c4ccc(Cl)cc4)CC3)nc(OCC(F)(F)F)n2)cc1 [Compound 3020] | 0.01 to 10
45 | COC(=O)[C@H](CNC(=O)C(=O)Nc1ccc(C(C)C)cc1)NC(=O)c1ccc(Nc2nc(NC3(c4ccc(Cl)cc4)CC3)nc(OCC(F)(F)F)n2)cc1 [Compound 3212] | 0.01 to 10
46 | COC(=O)c1cccc(-c2ccccc2NC(=O)C(=O)NCC(C)(C)CNC(=O)c2ccc(Nc3nc(NC4(c5ccc(Cl)cc5)CC4)nc(OCC(F)(F)F)n3)cc2)c1 [Compound 3045] | 0.01 to 10
47 | NC(=O)c1ccc(NC(=O)C(=O)NC/C(=N/C(=O)c2ccc(Nc3nc(NC4(c5ccc(Cl)cc5)CC4)nc(OCC(F)(F)F)n3)cc2)C(=O)O)cc1 [Compound 3156] | 0.01 to 10
48 | COC(=O)[C@H](CCNC(=O)C(=O)Nc1ccc(CN2CCCCC2)cc1)NC(=O)c1ccc(Nc2nc(NC3(c4ccc(Cl)cc4)CC3)nc(OCC(F)(F)F)n2)cc1 [Compound 3313] | 0.01 to 10
49 | COC(=O)[C@H](CCNC(=O)C(=O)Nc1ccc(C(C)(C)C)cc1)NC(=O)c1ccc(Nc2nc(NC3(c4ccc(Cl)cc4)CC3)nc(OCC(F)(F)F)n2)cc1 [Compound 3329] | 0.01 to 10
50 | COC(=O)[C@H](CCNC(=O)C(=O)Nc1ccc(C2CCCCC2)cc1)NC(=O)c1ccc(Nc2nc(NC3(c4ccc(Cl)cc4)CC3)nc(OCC(F)(F)F)n2)cc1 [Compound 3111] | 0.01 to 10
51 | COC(=O)/C(CCNC(=O)C(=O)Nc1cccc(S(C)(=O)=O)c1)=N\C(=O)c1ccc(Nc2nc(NC3(c4ccc(Cl)cc4)CC3)nc(OCC(F)(F)F)n2)cc1 [Compound 3588] | 0.01 to 10
